{"source": "patent US20240148765A1", "about": "“COMPOSITIONS AND METHODS FOR TREATING AND/OR PREVENTING THERAPY-RELATED CARDIOMYOPATHY ASSOCIATED WITH NEUTROPHIL INFILTRATION” (University of Virginia Patent Foundation, priority 2021, published 2024)", "key": {"[1]": {"tested_on": "myeloid-specific Trp53-deficient mice (Lyz2^Cre/+Trp53^fl/fl)", "settings": "mouse, in vivo", "from_the_text": "(§3) Mice. Wild-type mice (Cd45.2), Trp53-insufficient mice, Trp53^R27OH mice, Trp53-floxed mice, Lyz2-Cre mice, Pep Boy mice (Cd45.1), and Ccr2^gfp/gfp mice were obtained from The Jackson Laboratory (stock 000664, 002103, 008182, 008462, 004781, 002014, and 027619, respectively). All strains are C57BL/6J background. Mice with myeloid-restricted Trp53 ablation were generated by crossing Trp53-floxed mice (Trp53^fl/fl) with Lyz2-Cre mice. Male mice were used for both in vivo and in vitro experiments unless otherwise noted. Mice were housed in a specific pathogen-free animal facility and given food and water ad libitum on 12-hour dark/light schedule.\n(§4) Doxorubicin administration. Pattern 1: adoptive BMT mice were injected with doxorubicin 6 weeks after BMT using a model of therapy-related clonal hematopoiesis (Wang et al., 2020) involving 3 rounds of 2 mg/kg i.p. injection, with 3 weeks between each round. Pattern 2: competitive BMT mice, Trp53-Myelo-KO mice, Ccr2^gfp/gfp mice, and mice in neutrophil depletion and neutrophil recruitment inhibition studies were injected with doxorubicin with a dose of 15 μg/g (body weight) split into 3 injections at indicated time points. […]\n(§5) Quantitative RT-PCR. […] Gene expression was calculated relative to 36b4 and normalized to controls. Data were calculated by AACt approach."}, "[2]": {"tested_on": "Trp53 mutant hematopoietic cells", "assay": "Adoptive bone marrow transplantation model of Trp53 clonal hematopoiesis with cycles of Dox; flow cytometry chimerism and blood counts", "format": "in vivo, mice", "method": "Non-myeloablative bone marrow transplantation.\n(§1) Doxorubicin administration.\n(§2) Hematopoietic cell parameter measurements. […] Hematopoietic parameters were analyzed using an Element HT5 Veterinary Hematology Analyzer (Heska, Loveland, Colorado, United States of America)."}, "[3]": {"tested_on": "C57BL6/J wild type mice", "assay": "Single bolus of Dox in wild-type mice; cardiac parameters, blood counts, cardiac-resident leukocytes", "format": "in vivo", "method": "as §1, §2"}, "[4]": {"tested_on": "myeloid-specific Trp53-deficient mice (Lyz2^Cre/+Trp53^fl/fl)", "assay": "Dox-induced cardiotoxicity in myeloid-specific Trp53-deficient mice", "settings": "Lyz2^Cre/+Trp53^fl/fl vs control mice treated with Dox", "from_the_text": "as §3, §4, §5"}, "[5]": {"tested_on": "mice transplanted with wild-type or Trp53 mutant cells", "quoted_text": "Doxorubicin administration. Pattern 1: adoptive BMT mice were injected with doxorubicin 6 weeks after BMT using a model of therapy-related clonal hematopoiesis (Wang et al., 2020) involving 3 rounds of 2 mg/kg i.p. injection, with 3 weeks between each round. Pattern 2: competitive BMT mice, Trp53-Myelo-KO mice, Ccr2^gfp/gfp mice, and mice in neutrophil depletion and neutrophil recruitment inhibition studies were injected with doxorubicin with a dose of 15 μg/g (body weight) split into 3 injections at indicated time points. Pattern 3: wild-type mice were injected with a single dose of doxorubicin (15 μg/g) at indicated time points.\nEchocardiography. Cardiac function was assessed before and after Dox administration at indicated time points using a Vevo 2100 ultrasound system equipped with MS400D probe (FUJIFILM VisualSonics Inc., Toronto, Ontario, Canada). Echocardiography was performed as described in Wang et al., 2019. Briefly, mice were anesthetized with isoflurane at a concentration of 5% (induction phase) and 1-1.5% (maintenance phase). Each animal was placed on the heating table in a supine position with the extremities taped to the table through four electrocardiography leads. Chest fur was removed with a chemical hair remover, and ultrasound gel was applied to the thorax surface to improve the visibility of the cardiac chambers. Left ventricular diameter at end-diastole (LVDd, mm), left ventricular diameter at end-systole (LVDs, mm), posterior wall thickness in diastole (PWTd, mm), and fractional shortening (FS, %) were measured from M-mode images obtained by short-axis view visualizing both mid papillary muscles. Measurements and analysis were performed by two individuals who were blinded to the identity of the experimental groups of mice using a Vevo Lab software (FUJIFILM VisualSonics Inc.)."}, "[6]": {"tested_on": "Ccr2-deficient mice", "assay": "Dox-induced cardiac toxicity in Ccr2-deficient mice", "format": "in vivo", "settings": "Ccr2-deficient relative to wild-type mice, 15 μg/g split into 3 injections, 4 weeks", "description": "Mice. […] All strains are C57BL/6J background.\nas §1"}, "[7]": {"tested_on": "lethally irradiated mice transplanted with Trp53-heterozygous cells", "assay": "Dox cardiotoxicity in myeloablative (competitive) BMT mice, 30% Trp53^+/− or wild-type cells", "method": "as §1\nQuantitative RT-PCR. Mouse total RNA was isolated using QIAzol reagent (Catalog No. 79306; Qiagen, Inc., Germantown, Maryland, United States of America), and was purified on the QIAcube. 1 μg RNA was reverse transcribed with a High-capacity cDNA Reverse Transcription Kit (Catalog No. 4368814; Thermo Fisher Scientific). qRT-PCR was performed with POWERUP™ SYBR™ Green reagent (Catalog No. 4367659; Thermo Fisher Scientific) in a QUANTSTUDIO™ 6 Flex PCR system (Thermo Fisher Scientific). Gene expression was calculated relative to 36b4 and normalized to controls. Data were calculated by AACt approach."}, "[8]": {"target": "T1, CXCR2 (Mus musculus, UniProt P35343)", "T1 construct": "from tissue; host or cells: whole animal: wild-type C57BL/6J mice (receptor on the animals' own neutrophils)", "T1 sequence (P35343 1-359)": "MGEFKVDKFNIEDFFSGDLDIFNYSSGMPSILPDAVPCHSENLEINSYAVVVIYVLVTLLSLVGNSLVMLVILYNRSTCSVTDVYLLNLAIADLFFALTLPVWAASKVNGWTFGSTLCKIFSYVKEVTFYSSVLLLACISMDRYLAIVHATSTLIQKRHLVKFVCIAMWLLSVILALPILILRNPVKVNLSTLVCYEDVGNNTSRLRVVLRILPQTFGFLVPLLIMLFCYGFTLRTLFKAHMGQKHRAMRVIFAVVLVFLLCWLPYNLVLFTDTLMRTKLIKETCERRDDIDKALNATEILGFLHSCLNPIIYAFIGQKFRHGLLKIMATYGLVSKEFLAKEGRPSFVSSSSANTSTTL", "assay": "CXCR2 inhibitor SB265610 in Dox-treated wild-type mice", "format": "in vivo", "settings": "2 mg/kg/day i.p.", "method": "as §1\nSB265610 (CXCR2 inhibitor) administration. SB265610 (1-(2-Bromophenyl)-3-(4-cyano-1H-benzo[d] [1,2,3]triazol-7-yl)urea, N-(2-Bromophenyl)-N′-(7-cyano-1H-benzotriazol-4-yl)urea; Catalog No. SML0421; Sigma-Aldrich, St. Louis, Missouri, United States of America) was used to inhibit neutrophil infiltration into tissues. Mice were injected intraperitoneally with 2 mg/kg of SB265610, once a day, over a time course that starts 1 day before the start of doxorubicin administration until the end of the study. The solution of SB265610 was prepared in sterile dimethyl sulfoxide (DMSO) to a concentration of 10 mg/ml. The aliquoted mixture was stored at −20° C. and thawed before use. The solution was mixed with corn oil (Sigma Catalog No. C8267) to minimize the toxic effect of DMSO just before injection. Injections were performed using a sterile syringe and needle (29G). The expiration date of the mixture coincided with the expiration date of the SB265610."}, "[9]": {"settings": "adoptive BMT mice, Dox in cycles vs saline"}, "[10]": {"settings": "single bolus of Dox 15 μg/g i.p., up to 14 days"}, "[11]": {"settings": "adoptive BMT mice treated with Dox"}, "[12]": {"settings": "mice transplanted with wild-type cells, Dox cycles"}, "[13]": {"settings": "mice with Trp53^R27OH mutant blood cells vs wild-type cells, Dox regimen"}, "[14]": {"settings": "Trp53 heterozygous mutant vs wild-type bone marrow, 7 days after single Dox 15 μg/g"}}, "note": "Like-named read-outs stand apart in the source and are kept apart here.", "data": [{"smiles": "COc1cccc2c1C(=O)c1c(O)c3c(c(O)c1C2=O)C[C@@](O)(C(=O)CO)C[C@@H]3O[C@H]1C[C@H](N)[C@H](O)[C@H](C)O1", "note": "[Dox, doxorubicin]", "values": [{"measurement": "myocardial transcripts that encode inflammatory mediators", "setting": "[1]", "value": "upregulation"}, {"measurement": "proportions of donor-derived Trp53^+/− cells in bone marrow LSK, LT-HSC and GMP fractions", "setting": "[2]; Dox vs saline control, at termination of the experiment", "value": "considerably higher"}, {"measurement": "expansion of donor-derived Trp53^+/− cells in circulating cell populations", "setting": "[2]; [9]", "value": "further expansion"}, {"measurement": "expansion of transplanted wild-type cells in circulating cell populations", "setting": "[2]; [9]", "value": "little or no effect"}, {"measurement": "hemoglobin levels and absolute numbers of hematopoietic cell types", "setting": "[2]; after the fourth cycle of Dox, prolonged administration", "value": "altered some of these parameters"}, {"measurement": "expansion of donor-derived Trp53^R27OH clones in circulating leukocytes and bone marrow HSPC fractions", "setting": "[2]; serial Dox administration, adoptive BMT", "value": "selective expansion"}, {"measurement": "cardiac wall dimension and function", "setting": "[3]; single bolus of Dox 15 μg/g i.p., 14 days", "value": "reductions"}, {"measurement": "body weight", "setting": "[3]; [10]", "value": "time-dependent loss"}, {"measurement": "heart weight", "setting": "[3]; [10]", "value": "time-dependent loss"}, {"measurement": "peripheral blood monocytes", "setting": "[3]; single bolus of Dox, 7-day timepoint", "value": "transient increase"}, {"measurement": "peripheral blood neutrophils", "setting": "[3]; single bolus of Dox, at 7 days, sustained to 14 days", "value": "increase"}, {"measurement": "neutrophil recruitment to the heart", "setting": "[3]; single bolus of Dox, levels maintained to 14 days", "value": "reached a peak at 7 days"}, {"measurement": "cardiac-resident macrophage number", "setting": "[3]; single bolus of Dox, nadir at 7 days", "value": "decreased"}, {"measurement": "cardiac-resident monocyte number", "setting": "[3]; single bolus of Dox, peak at 7 days", "value": "increased"}, {"measurement": "survival", "setting": "[4]", "value": "reduced survival"}, {"measurement": "capillary density in the myocardium", "setting": "[5]; [11]", "value": "reduced capillary density"}, {"measurement": "fibrosis in the myocardium", "setting": "[5]; [11]", "value": "greater fibrosis"}, {"measurement": "cardiac contractility (echocardiography)", "setting": "[5]; [12]", "value": "deterioration"}, {"measurement": "ventricular wall (echocardiography)", "setting": "[5]; [12]", "value": "thinning"}, {"measurement": "cardiac contractility (echocardiography)", "setting": "[5]; [13]", "value": "significant reduction"}, {"measurement": "ventricular wall (echocardiography)", "setting": "[5]; [13]", "value": "wall thinning"}, {"measurement": "functional impairment and wall thinning", "setting": "[5]; mice with expanding Trp53^+/− clones vs wild-type cells, Dox cycles", "value": "significantly greater"}, {"measurement": "cardiac dysfunction after Dox", "setting": "[6]", "value": "comparable"}, {"measurement": "heart transcripts of inflammatory mediators Il1b, Il6 and Tnf", "setting": "[7]; 8 weeks after Dox, mutant Trp53 vs wild-type cells", "value": "significant increase"}, {"measurement": "fractional shortening and posterior wall thickness of the heart", "setting": "[7]; Trp53^+/− vs wild-type group, VAF 0.15, after Dox", "value": "significant reductions"}, {"measurement": "neutrophil recruitment to the heart", "setting": "[7]; [14]", "value": "greater neutrophil recruitment"}, {"measurement": "numbers of Ly6C^hi monocytes or macrophages within cardiac tissue", "setting": "[7]; [14]", "value": "no effect"}]}, {"smiles": "N#Cc1ccc(NC(=O)Nc2ccccc2Br)c2[nH]nnc12", "note": "[SB265610, 1-(2-Bromophenyl)-3-(4-cyano-1H-benzo[d] [1,2,3]triazol-7-yl)urea, N-(2-Bromophenyl)-N′-(7-cyano-1H-benzotriazol-4-yl)urea]", "values": [{"measurement": "neutrophil influx to the hearts", "setting": "[8]", "value": "reduced"}, {"measurement": "effects of Dox on cardiac wall thinning and function", "setting": "[8]; 14-day timepoint", "value": "reversed"}]}]}
